Where two headings read alike, the source gives them in different places. Where a SMILES comes first, the peptide text is derived from it. Bridges are numbered along the chain shown (N, C = ends). Where no end group is shown, it is not given here. The star is where a group is joined. Glutaryl(5-(14-O-Dox)) = COc1cccc2c1C(=O)c1c(O)c3c(c(O)c1C2=O)C[C@@](O)(C(=O)COC(=O)CCCC(=O)*)C[C@@H]3O[C@H]1C[C@H](N)[C@H](O)[C@H](C)O1
Key:
[1] = Biodistribution in BT474 tumor-bearing mice by fluorescent imaging and HPLC; type: in vivo; settings: 4 h after intravenous injection, 5 mg DOX equivalent/kg
Text: Saline was used as negative control.
Daunorubicin (DAU) was used as internal standard.

[2] = test system: SKBR3 cells; assay: MTT cytotoxicity assay, SKBR3 cells; type: cell-based, human
Method: (§1) The cytotoxicity of MAHNP-DOX was determined using MTT test. Free DOX was used as positive control, and the cells treated with conditioned medium only were considered as negative control. BT474 and SKBR3 cells in exponential growth were seeded in a 96-well plate and incubated for 24 h at 37 °C. Then, a series of dilutions of free DOX and MAHNP-DOX at equivalent concentration were prepared with the conditioned medium and incubated for another 48 h. After an addition of MTT solution (5 mg/ml in PBS) to each well, the cells were incubated for 4 h and lysed in DMSO. Absorbance was determined at 490 nm using an EL ×800 absorbance microplate reader (Biotek, Winooski, VT, USA). The IC50 values were calculated from the linear regression of the dose–log response curves using GraphPad Prism 6 software (GraphPad Software, San Diego, CA, USA).
(§2) To further confirm the dependence of cytotoxicity on MMP-2 activity, NIH-3T3 cells were pre-incubated with 10 μM MMP-2 inhibitor I in serum-free medium for 24 h, and the medium was also collected termed as treated conditioned medium. Following the procedure above, the cytotoxicity of MAHNP-DOX was also determined using this medium.

[3] = test system: BT474 xenografts; settings: nude mice with BT474 xenografts, 5 mg DOX equivalent/kg once every seven days for three times
Method: Eighteen athymic nude mice (Balb/c nu/nu, females) were used. All animal experiments were carried out in accordance with guidelines evaluated and approved by the ethics committee of Nanjing Medical University. BT474 cells were first collected in a concentration of 1 × 10^7/mL and orthotopically injected into the mammary fat pad area of each mouse with 0.1 mL PBS/mouse.
(§3) When the tumor size reached a volume of about 50 mm^3, the mice were randomly divided into three groups (each group consisted of 6 mice) for the treatment with 5 mg DOX equivalent/kg of either free DOX or MAHNP-DOX once every seven days for three times. Saline was used as negative control. The animals’ weight and tumor dimensions were measured every five days. Tumor volume was calculated using an equation: TV =1/2 × a × b^2, where a is the largest diameter and b is the smallest diameter. Each animal was tagged in the ear and followed individually throughout the experiment. For in vivo imaging study, the mice were intravenously injected through the caudal vein by 5 mg DOX equivalent/kg of free DOX and MAHNP-DOX, images were taken on IVIS LuminaXR imaging system (Perkin Elmer, San Diego, CA, USA) at 4 h post injection. Tumors and organ samples including heart, liver, spleen, kidneys and lungs were carefully removed and stored in liquid nitrogen. To assess the pharmacokinetic profile of the drugs, free DOX and MAHNP-DOX were injected intravenously into the mice, respectively. Blood samples were collected at 0.083, 0.25, 0.5, 1, 2, 4, 8, 12 and 24 h post injection.

[4] = test system: BT474 cells; assay: MTT cytotoxicity assay, BT474 cells; type: cell-based, human
Method: as §1, §2

[5] = target: T1, MMP-2 (Mus musculus, UniProt P33434); assay: Enzymatic cleavage of MAHNP-DOX by MMP-2 in NIH-3T3 conditioned medium; type: in vitro ADME; settings: 5 μM MAHNP-DOX in concentrated conditioned medium from NIH-3T3 cells containing active MMP-2, 37 °C, 2 h of incubation, HPLC / LC-MS/MS
T1 construct: 4 mL of the medium containing active MMP-2 (i.e. conditioned medium) was collected and concentrated; endogenous in cells; host or cells: NIH-3T3 fibroblasts; serum-free conditioned medium concentrated with a 10 K centrifugal filter
T1 sequence (P33434 110-662): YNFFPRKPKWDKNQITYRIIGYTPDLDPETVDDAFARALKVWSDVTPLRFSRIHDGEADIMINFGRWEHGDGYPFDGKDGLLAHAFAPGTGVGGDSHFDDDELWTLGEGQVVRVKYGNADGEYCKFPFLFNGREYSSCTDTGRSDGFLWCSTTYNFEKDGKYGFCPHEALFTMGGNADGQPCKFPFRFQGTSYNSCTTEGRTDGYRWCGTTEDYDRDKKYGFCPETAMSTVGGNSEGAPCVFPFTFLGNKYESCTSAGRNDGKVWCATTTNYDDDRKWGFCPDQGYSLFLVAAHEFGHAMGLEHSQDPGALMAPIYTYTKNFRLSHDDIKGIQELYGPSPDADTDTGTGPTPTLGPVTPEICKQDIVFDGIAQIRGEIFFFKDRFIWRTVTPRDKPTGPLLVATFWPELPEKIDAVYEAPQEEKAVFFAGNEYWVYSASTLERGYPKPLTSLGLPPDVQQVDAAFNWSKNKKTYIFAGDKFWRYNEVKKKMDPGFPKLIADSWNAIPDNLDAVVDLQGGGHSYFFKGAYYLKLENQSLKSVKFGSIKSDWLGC
Method: NIH-3T3 cells that can secrete active MMP-2 (Figure S1) were cultured in serum-free medium for 24 h. Then, 4 mL of the medium containing active MMP-2 (i.e. conditioned medium) was collected and concentrated to 500 μL using Amicon Ultra-4 10 K centrifugal filter devices (Millipore, Bedford, MA, USA) (Aye et al., [2004]). Dilution of MAHNP-DOX at a concentration of 5 μM was prepared with the concentrated conditioned medium and incubated at 37 °C. Aliquots were removed at 1 h and 2 h and then analyzed by LC–MS/MS (van Duijnhoven et al., [2011]). The analysis was performed on XBridge™ C18 column (5 μm, 4.6 × 250 mm; Waters, Milford, MA, USA) at room temperature. The flow rate of HPLC was 0.3 mL/min with a mobile phase consisted of solvent A (water with 0.1% FA) and solvent B (ACN). The gradient was as follows: B 0 min (10%) → 15 min (90%) → 20 min (90%) → 25 min (10%).
The sensitivity of MAHNP-DOX to MMP-2 was studied using HPLC. To date, there has been substantial evidence indicating stronger signals for MMP-2 in stromal cells compared to cancer cells, while stromal fibroblasts interact with cancer cells by secreting and activating MMP-2 (Saad et al., [2002]; Hassona et al., [2014]). […] Thus, the peaks for MAHNP-DOX and one product after cleavage of GLPG-DOX were monitored. […]

[6] = Pharmacokinetic profile in plasma of mice; settings: intravenous injection, blood 0.083-24 h post injection, LC-MS/MS, n = 3
Method: as §3

[7] = test system: SKBR3 cells; assay: TUNEL assay, SKBR3 cells; type: cell-based, human; settings: 24 h treatment, n = 3
Method: (§4) Transferase-mediated nick-end labeling assay was carried out using the DeadEnd Fluorometric TUNEL system kit (Promega, Madison, WI, USA). […] Images were acquired at room temperature with an inverted fluorescence microscope (Leica, DMI3000B, Wetzlar, Germany).

[8] = test system: BT474 cells; assay: TUNEL assay, BT474 cells; type: cell-based, human; settings: 24 h treatment, n = 3
Method: as §4

[9] = target: human epidermal growth factor receptor family member HER2 (human (endogenous in BT474 and SKBR3)) (UniProt P04626)
[10] = 48 h, in conditioned medium, n = 3, read-out: IC50
[11] = conditioned medium from NIH-3T3 cells pretreated with 10 μM MMP-2 inhibitor I, n = 3, read-out: IC50 with MMP-2 inhibitor pretreatment

COc1cccc2c1C(=O)c1c(O)c3c(c(O)c1C2=O)C[C@@](O)(C(=O)COC(=O)CCCC(=O)NCC(=O)N1CCC[C@H]1C(=O)N[C@@H](CC(C)C)C(=O)NCC(=O)N[C@@H](CC(C)C)C(=O)N[C@@H](C)C(=O)NCC(=O)N[C@@H](CC(=O)O)C(=O)N[C@@H](CC(=O)O)C(=O)N[C@@H](Cc1ccc(O)cc1)C(=O)N[C@H]1CSSC[C@@H](C(=O)N[C@@H](Cc2ccc(O)cc2)C(=O)N[C@@H](CCSC)C(=O)N[C@@H](CC(=O)O)C(=O)N[C@H](C(N)=O)C(C)C)NC(=O)[C@H](C)NC(=O)[C@H](Cc2ccc(O)cc2)NC(=O)[C@H](Cc2ccccc2)NC(=O)CNC(=O)[C@H](CC(=O)O)NC1=O)C[C@@H]3O[C@H]1C[C@H](N)[C@H](O)[C@H](C)O1 [MAHNP-DOX] ({Glutaryl(5-(14-O-Dox))}-GPLGLAGDDYCDGFYACYMDV-NH2; disulfide 11-17)
drug amount in the tumors compared with free DOX ([1]; fluorescent images confirmed by HPLC, p < .01): significantly higher
drug accumulation in heart, liver, spleen, lung and kidney compared with free DOX ([1]; p < .05): lower
IC50 [2, 10]: 110 ± 12.7 nM
IC50 [2, 11]: 147 ± 16.3 nM
toxicity / body weight change [3]: less weight loss
IC50 [4, 10]: 747 ± 81.5 nM
IC50 [4, 11]: 1350 ± 154 nM
efficiency of cleavage [5]: 80.8%
half-life t1/2 in plasma [6]: 17.6 ± 6.4 h

COc1cccc2c1C(=O)c1c(O)c3c(c(O)c1C2=O)C[C@@](O)(C(=O)CO)C[C@@H]3O[C@H]1C[C@H](N)[C@H](O)[C@H](C)O1.Cl [free DOX, Doxorubicin hydrochloride]
percentage of apoptotic cells [7]: 44.8 ± 2.8%
IC50 [2, 10]: 173 ± 19.2 nM
tumor growth inhibition ([3]; day 25 after treatment): 53.4 ± 6.6%
toxicity / body weight change [3]: Toxicity was observed
percentage of apoptotic cells [8]: 34.2 ± 2.1%
IC50 [4, 10]: 2080 ± 368 nM
half-life t1/2 in plasma [6]: 7.7 ± 1.6 h

B1: anti-HER2 peptide mimetic AHNP (peptide)
peptide: YCDGFYACYMDV-NH2
modifications: disulfide 2-8
increase of the cell population in the G1 phase, BT474 cells, 48 h exposure to AHNP (10 μM) alone, flow cytometry [9]: 6.58%
increase of the cell population in the G1 phase, SKBR3 cells, 48 h exposure to AHNP (10 μM) alone, flow cytometry [9]: 9.95%

Source: publication PMC6058718, “Doxorubicin conjugated with a trastuzumab epitope and an MMP-2 sensitive peptide linker for the treatment of HER2-positive breast cancer” (Drug Delivery, 2018)
